Experimental data: US20070248543A1 (ZGene A/S, priority 2004, published 2007)
Several values for one entry are separate records, joined by “and”; a condition that tells them apart may be missing. Equal entries are not always repeated. Where two headings read alike, the source gives them in different places.

What was measured:
[1] = tested on: deoxyribonucleoside kinases in MCF-7 cell crude extract; assay: Deoxyribonucleoside kinase activity in crude extracts of MCF-7 cells; assay type: biochemical, human; details: substrate at 200 μM; triplicates, mean with standard deviation
Description: Cells were submitted to brief sonication in extraction buffer (50 mM Tris/HCl pH 7.5, 1 mM DTT, 10% (v/v) glycerol, 1% (v/v) Triton X-100, protease inhibitor cocktail (CompleteTM from Roche Diagnostics). […] App. 20 μg extracts were used in the assays. The assay was done as described by Munch-Petersen et al. [Munch-Petersen, B., Knecht, W., Lenz, […]: Functional expression of a multisubstrate deoxyribonucleoside kinase from Drosophila melanogaster and its C-terminal deletion mutants; J.Biol.Chem. 2000 275 6673-6679].

[2] = tested on: deoxyribonucleoside kinases in DT 40 chicken cell line crude extract; assay: Deoxyribonucleoside kinase activity in crude extracts of DT 40 cells (DE-81 filter paper assay); assay type: biochemical; details: substrate at 200 μM; triplicates, mean with standard deviation
Description: Deoxribonucleoside kinase activities in DT 40 chicken cell line DT 40 cells were grown in RPMI-1640 medium (Gibco) supplemented with 10% foetal calf serum, 1% chicken serum, 2 mM L-glutamine, 10 uM mercaptoethanol and penicillin-streptomycin mixture […], harvested and stored at −80° C. until activity testing. Cells were submitted to brief sonication in extraction buffer (50 mM Tris/HCl pH 7.5, 1 mM DTT, 10% (v/v) glycerol, 1% (v/v) Triton X-100, protease inhibitor cocktail (Complete™ from Roche Diagnostics). Deoxyribonucleoside kinase activities were determined in the DT 40 extracts by initial velocity measurements based on four time samples by the DE-81 filter paper assay using tritium-labelled nucleoside substrates. App. 20 μg extracts were used in the assays. The assay was done as described by Munch-Petersen et al. [Munch-Petersen, B., Knecht, W., Lenz, C., Sondergaard, L. & Piskur, J: Functional expression of a multisubstrate deoxyribonucleoside kinase from Drosophila melanogaster and its C-terminal deletion mutants; J.Biol.Chem. 2000 275 6673-6679].

[3] = target: T1, human dGK (Homo sapiens, UniProt Q16854); details: Zhu et al. 1998; cited from earlier work
T1 sequence (Q16854 40-277): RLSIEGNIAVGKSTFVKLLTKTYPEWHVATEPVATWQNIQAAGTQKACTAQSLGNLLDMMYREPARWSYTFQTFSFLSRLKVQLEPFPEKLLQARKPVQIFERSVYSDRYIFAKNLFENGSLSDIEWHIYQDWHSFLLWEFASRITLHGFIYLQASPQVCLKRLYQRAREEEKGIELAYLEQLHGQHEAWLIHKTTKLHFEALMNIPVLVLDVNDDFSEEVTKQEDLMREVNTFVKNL

[4] = target: HsdCK (Homo sapiens, UniProt P27707); details: cited from earlier work; for Kcat / Vmax: literature data
Sequence of HsdCK (P27707 whole entry): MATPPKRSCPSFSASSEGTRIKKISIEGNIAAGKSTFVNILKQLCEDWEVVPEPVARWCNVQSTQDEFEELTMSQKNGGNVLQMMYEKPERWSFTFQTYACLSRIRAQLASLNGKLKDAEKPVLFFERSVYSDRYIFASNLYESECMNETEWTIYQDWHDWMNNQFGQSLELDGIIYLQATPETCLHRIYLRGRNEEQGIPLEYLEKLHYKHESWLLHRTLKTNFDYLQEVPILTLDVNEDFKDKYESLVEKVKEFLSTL

[5] = tested on: GgdCK1; assay: Steady state kinetics of purified recombinant GgdCK1; assay type: biochemical, Gallus gallus
Description: (§1) Purification of the Recombinant Enzymes. Transformants (KY895 cells transfected with PZG469 (GgcCK1) and PZG657 (GgdCK2)) were grown in LB medium containing […] ampicillin to A600 0.5-0.6, and the expression was induced with […] IPTG for 4 h at 25° C. […] The cells were homogenized using a French Press, subjected to centrifugation at 12,000×g for 30 minutes (4° C.), filtered through a […] Whatman glass microfiber filter and a […] cellulose acetate filter, and loaded onto the column (2 ml column packed with Glutathione-Sepharose 4 FF, Pharmacia) equilibrated in binding buffer A. Unbound material was removed by washing with 10 column volumes of buffer A. Subsequently the column was washed with 5 ml buffer A containing 10 mM ATP/MgCl2, and incubated for 1 h at room temperature and then 30 min at 4° C. to remove strongly bound contaminating proteins. Afterwards the column was washed again with 10 ml of buffer A and 2 ml of thrombin (50 U/ml) solution were applied on the column. The column was gently shaken overnight at 4° C. to cleave the recombinant protein from the GST-tag. Pure protein was eluted from the column in buffer A. Uncleaved fusion protein was eluted with buffer B (50 mM Tris-HCl pH 8, 10% glycerol, 0,1 % Triton X-100, 10 mM gluthatione reduced). Before storage of enzyme-containing fractions at −80° C., glycerol, Triton X-100, and dithiothreitol were added to 8%, 1% and 1 mM, respectively. Proteins were analyzed on Agilent 2100 Bioanalyzer using Protein Assay Chips.
Enzyme Assays. Bacteria or cell lines were grown as described, harvested and stored at −80° C. until activity testing. Cells were submitted to brief sonication in extraction buffer (50 mM Tris/HCl pH 7.5, 1 mM DTT, 10% (v/v) glycerol, 1% (v/v) Triton X-100, protease inhibitor cocktail Complete™ from Roche Diagnostics). Deoxyribonucleoside kinase activities were determined by initial velocity measurements based on four time samples by the DE-81 filter paper assay using tritium-labelled nucleoside substrates. App. 20 μg extracts were used in the assays. […] One unit of deoxyribonucleoside kinase activity is defined as 1 μmol of the corresponding monophosphate formed per minute. The obtained data were fitted to the Michaelis-Menten equation v=Vmax·[S]/(Km+[S]).

[6] = tested on: deoxyribonucleoside kinase expressed in E. coli TOP10 extracts; assay: Deoxyribonucleoside kinase activity in extracts of transformed TOP10 cells; assay type: biochemical; details: approximate
[7] = tested on: MCF-7 (breast cancer cell line); assay: Cell proliferation assay (XTT cytotoxicity) of retrovirus-transduced MCF-7 cells; assay type: cell-based; details: Homo sapiens, MCF7, read-out: IC50 value of ara-G, MCF-7 parental cell line
Description: HE 293 T packaging cells (ATCC CRL-11268) were cultured at 37° C. in OPTIMEM 1 medium (Life Technologies, Inc.) The constructed pLCXSN plasmid vector was transfected into the packaging cells using LipofectAMINE PLUS (Life Technologies, Inc.) according to the protocol provided by the supplier. The medium from the transfected cells was collected 48 hours after transfection, filtered through a 0.45 µm filter, pelleted by ultracentrifugation (50.000×g, 90 minutes at 4° C.) and dissolved in DMEM (Cambrex, Blo Whittaker Cat. No. 12-741-F).
The virus containing medium was subsequently used to transduce the cancer cell lines with a MOI of 5. […]
Cells were plated at densities range of 1.500-3.500 cells/well in 96-well plates coated with Poly-L-lysine (Sigma Cat. No. P6282) Gemcitabine (obtained from Orifarm A/S—DK) was added after 24 hours of incubation at 37° C., 5% CO2, and the medium containing the nucleoside analog. […] The IC50 value of the investigated drug/compound was calculated as the mean of these experiments using SigmaPlot® (SPSS Science, Dyrberg Trading—DK).
The sensitivity of the untransduced cells, and of the cells transduced with either the retroviral vector alone ore the vector containing chicken kinases for Gemcitabine and Ara-G was determined.

[8] = target: GgdCK2 (Gallus gallus, UniProt Q5ZJM7); assay: Steady state kinetics of purified recombinant GgdCK2
Sequence of GgdCK2 (Q5ZJM7 whole entry): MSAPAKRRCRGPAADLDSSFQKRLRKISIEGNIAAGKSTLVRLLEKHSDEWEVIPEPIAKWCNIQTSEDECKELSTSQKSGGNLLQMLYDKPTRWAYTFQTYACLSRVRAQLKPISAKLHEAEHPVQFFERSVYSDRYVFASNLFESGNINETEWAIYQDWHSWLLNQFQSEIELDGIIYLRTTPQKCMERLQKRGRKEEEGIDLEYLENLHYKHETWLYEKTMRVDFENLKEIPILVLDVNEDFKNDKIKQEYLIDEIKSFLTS
Description: as §1
Enzyme Assays. Bacteria or cell lines were grown as described, harvested and stored at −80° C. until activity testing. Cells were submitted to brief sonication in extraction buffer (50 mM Tris/HCl pH 7.5, 1 mM DTT, 10% (v/v) glycerol, 1% (v/v) Triton X-100, protease inhibitor cocktail Complete™ from Roche Diagnostics). Deoxyribonucleoside kinase activities were determined by initial velocity measurements based on four time samples by the DE-81 filter paper assay using tritium-labelled nucleoside substrates. App. 20 μg extracts were used in the assays. […]

[9] = data from Bohman 1988 and Habteyesus 1991, read-out: Km

Compound | Deoxyribonucleoside kinase activity in crude extract of MCF-7 cells [1] | Deoxyribonucleoside kinase activity in crude extract of DT 40 cells [2] | Kcat [5] | Km [5] | Vmax [5] | further results
Nc1nc2c(ncn2[C@H]2C[C@H](O)[C@@H](CO)O2)c(=O)[nH]1 [dGuo, deoxyguanosine] | 0.01 ± 0.00 mU/mg | 0.09 ± 0.00 mU/mg | 0.20 s⁻¹ | 61.8 ± 11.1 µM | 394 ± 37 nm/min/mg | Km [3]: 7.6 µM; Km [4, 9]: 100 µM; Kcat [4]: 0.33 s⁻¹; Vmax [4]: 600 nm/min/mg
Nc1nc(F)nc2c1ncn2[C@@H]1O[C@H](CO)[C@@H](O)[C@@H]1O [F-araA, 2-Fluoroadenine 9-beta-D-Arabinofuranoside] |  |  |  |  |  | Km ([4]; data from Bohman 1988 and Habteyesus 1991): 200 µM
Nc1nc(Cl)nc2c1ncn2[C@H]1C[C@H](O)[C@@H](CO)O1 [CdA, 2-chloro-2′-deoxyadenosine] |  |  | 0.64 s⁻¹ | 3.3 ± 0.4 µM | 1273 ± 38 nm/min/mg | 
Cc1cn([C@H]2C[C@H](O)[C@@H](CO)O2)c(=O)[nH]c1=O [dThd, thymidine] | 0.07 ± 0.00 mU/mg | 0.1 ± 0.03 mU/mg |  |  |  | 
GgdCK1: Gallus gallus deoxycytidine kinase 1, 257 amino acid residues, SEQ ID No. 2 |  |  |  |  |  | dCyd phosphorylation efficiency [6]: ~8 mU
Nc1ccn([C@@H]2O[C@H](CO)[C@@H](O)C2(F)F)c(=O)n1 [Gemcitabine, 2′,2′-difluorodeoxycytidine] |  |  | 1.37 s⁻¹ | 6.3 ± 0.5 µM | 2712 ± 357 nm/min/mg | Km [4, 9]: 60 µM; Kcat [4]: 0.05 s⁻¹; Vmax [4]: 100 nm/min/mg
Nc1nc2c(ncn2[C@@H]2O[C@H](CO)[C@@H](O)[C@@H]2O)c(=O)[nH]1 [ara-G, 9-beta-D-arabinofuranosylguanine] |  |  |  |  |  | Km [3]: 8 µM; relative phosphorylation higher by recombinant human dGK than by recombinant human dCK [3]: 76 times; IC50 [7]: 1580 ± 158 µM
Nc1ccn([C@@H]2O[C@H](CO)[C@@H](O)[C@@H]2O)c(=O)n1 [araC, cytidine-arabinoside] |  |  | 0.44 s⁻¹ | 15.3 ± 2.3 µM | 878 ± 33 nm/min/mg | Kcat [8]: 0.34 s⁻¹; Km [8]: 1470 ± 664 µM; Vmax [8]: 649 ± 267 nm/min/mg
Nc1ncnc2c1ncn2[C@H]1C[C@H](O)[C@@H](CO)O1 [dAdo, deoxyadenosine] | 0.05 ± 0.00 mU/mg | 0.1 ± 0.01 mU/mg |  | 79 µM and 82 µM |  | 
Nc1ccn([C@H]2C[C@H](O)[C@@H](CO)O2)c(=O)n1 [dCyd, deoxycytidine] | 0.01 ± 0.00 mU/mg | 0.09 ± 0.01 mU/mg | 0.30 s⁻¹ | 4.8 µM | 589 ± 34 nm/min/mg | 
